Consider twelve compounds from ChEMBL document CHEMBL1155607, “Antigiardial activity of isoflavones from Dalbergia frutescens bark” (J Nat Prod, 2000).

≈ marks a conversion by molar mass, not a printed value. Calls of active or inactive are those of the source. The rule behind the calls is not given here.

In data set [1] the test system is Giardia intestinalis. The data set is described as follows: […] activity against Giardia intestinalis ATCC 30888 after 48 hrs by XTT assay. Type of data set: functional, organism-based. The conditions noted are these: Giardia duodenalis. On the technique in general: Formazan colour is commonly taken as a measure of viable cells.
In data set [2] the test system is Giardia intestinalis. Briefly: Antifungal activity against Giardia intestinalis. It is filed as functional, organism-based. Particulars: Giardia duodenalis.
Data set [3] concerns Mus musculus. Briefly: Toxicity in C57B mouse assessed as induction of adverse effect on gross behavior at 40 mg/kg, po administered once daily for 3 days. Type of data set: organism-based. The arrangement: dose 40 mg/kg, route oral. Particulars: in vivo, 72 h.
Data set [4] concerns Mus musculus. Briefly: Toxicity in C57B mouse assessed as induction of adverse feeding behavior at 40 mg/kg, po administered once daily for 3 days. Particulars: in vivo, 72 h. It is filed as organism-based. Also noted: dose 40 mg/kg, route oral.
Data set [5] concerns Giardia intestinalis. Briefly: […] activity against Giardia intestinalis infected in C57B mouse assessed as increase in disease cure rate at 10 mg/day administered 3 day postinfection for 4 days. The conditions noted are these: Giardia duodenalis. Type of data set: functional, organism-based.
For data set [6], the system named is Mus musculus. The data set is described as follows: Toxicity in C57B mouse assessed as induction of adverse effect on appearance at 40 mg/kg, po administered once daily for 3 days. Type of data set: organism-based. Also noted: dose 40 mg/kg, route oral. Particulars: in vivo, 72 h.
The subject of the next data set is Vero. The data set is described as follows: Cytotoxicity against african green monkey Vero cells up to 50 ug/mL after 48 hrs by neutral red dye assay. It is filed as cell-based. Particulars: chlorocebus sabaeus.
Data set [7] has as its system Giardia intestinalis. The data set is described as follows: […] activity against Giardia intestinalis infected in C57B mouse assessed as intestinal motile trophozoites count at 10 mg/day administered 3 day postinfection for 4 days. It is filed as functional, Giardia duodenalis.
The test system of data set [8] is Mus musculus. The data set is described as follows: Toxicity in C57B mouse assessed as adverse effect on body weight at 40 mg/kg, po administered once daily for 3 days. Also noted: dose 40 mg/kg, route oral. Type of data set: organism-based. The conditions noted are these: in vivo, 72 h.
For data set [9], the system named is Giardia intestinalis. The data set is described as follows: […] activity against Giardia intestinalis infected in C57B mouse assessed as decrease in intestinal parasite load at 10 mg/day administered 3 day postinfection for 4 days. Type of data set: functional, organism-based. Particulars: Giardia duodenalis.
The test system of data set [10] is Mus musculus. The data set is described as follows: Toxicity in C57B mouse assessed as induction of adverse grooming behavior at 40 mg/kg, po administered once daily for 3 days. Type of data set: organism-based. The arrangement: dose 40 mg/kg, route oral. The conditions noted are these: in vivo, 72 h.
Data set [11] concerns Trichomonas. The data set is described as follows: Antimicrobial activity against Trichomonas up to 25 ug/mL. It is filed as functional, organism-based.
The subject of data set [12] is Giardia intestinalis. Briefly: […] activity against Giardia intestinalis ATCC 30888 assessed as impairment of parasite motility after 2 hrs. It is filed as functional, organism-based. Particulars: Giardia duodenalis.
In data set [13] the test system is Giardia intestinalis. Briefly: […] activity against Giardia intestinalis ATCC 30888 assessed as impairment of parasite motility after 4 hrs. Type of data set: functional, organism-based. The conditions noted are these: Giardia duodenalis.
The subject of data set [14] is Giardia intestinalis. The data set is described as follows: […] activity against Giardia intestinalis ATCC 30888 at 10 ug/mL after 48 hrs by XTT assay. It is filed as functional, organism-based. The conditions noted are these: Giardia duodenalis.
The test system of data set [15] is Trichomonas. Briefly: Antimicrobial activity against Trichomonas. Type of data set: functional, organism-based.

With `O=c1c(-c2ccc(O)cc2)coc2cc(O)cc(O)c12` [GENISTEIN], the IC50 – broadly, the concentration that inhibits the measured activity by half – with Giardia intestinalis [1] was over 5 µg/mL.
Consider `COc1cc2c(=O)c(-c3ccc4c(c3)OCO4)coc2cc1O` [FUJIKINETIN], for which, in the data set with Giardia intestinalis [1], the 50% inhibitory concentration (IC50) is 1.5 µg/mL (≈ 4.8 µM).
For `O=c1c(-c2ccc(O)cc2)coc2cc(O)ccc12` [DAIDZEIN], it took 3.75 µg/mL (≈ 14.7 µM) to reach half-maximal inhibition in the data set with Giardia intestinalis [1] (IC50).
Compound `Oc1cc(O)c2c(c1)O[C@H](c1ccc(O)c(O)c1)[C@H](O)C2` [(-)-EPICATECHIN] returned a concentration for half-maximal inhibition (IC50) in the data set with Giardia intestinalis [2] of under 1 µg/mL.
In the data set with Giardia intestinalis [1], `COc1ccc(-c2coc3cc(O)cc(O)c3c2=O)cc1` [BIOCHANIN] gave a concentration for half-maximal inhibition (IC50) of 3.5 µg/mL (≈ 12.3 µM).
Consider `COc1ccc(-c2coc3cc(O)ccc3c2=O)cc1` [FORMONONETIN], for which the Activity entry in the data set with Mus musculus [3] is on record as “Non-toxic”; with Mus musculus [4], “Non-toxic”; with Mus musculus [6], “Non-toxic”; in the data set with Vero, “Non-toxic”; with Giardia intestinalis [7], 0.1; with Mus musculus [8], “Non-toxic”. Also, in the data set on Mus musculus [10], the Activity result is on record as “Non-toxic”. Further, the concentration for half-maximal inhibition (IC50) was 0.03 µg/mL (≈ 0.112 µM) in the data set with Giardia intestinalis [1], under 1 µg/mL in the data set on Giardia intestinalis [12] and under 1 µg/mL in the data set on Giardia intestinalis [13]. Further, the outcome in the data set on Giardia intestinalis [5], in the data set with Giardia intestinalis [9] and in the data set on Trichomonas [11] was Active.
Take `COc1ccc(-c2coc3cc(O)c(OC)cc3c2=O)cc1O`: in the data set with Giardia intestinalis [14], the result was inactive.
The compound `Cc1ncc([N+](=O)[O-])n1CCO` [METRONIDAZOLE] yielded an IC50 with Giardia intestinalis [1] of 0.1 µg/mL (≈ 0.584 µM). Also, the outcome with Giardia intestinalis [12] and in the data set on Giardia intestinalis [13] was inactive. Moreover, the outcome in the data set with Trichomonas [15] was Active.
As to `COc1ccc(-c2coc3cc(O)c(OC)cc3c2=O)cc1` [CASTANIN], the concentration for half-maximal inhibition (IC50) with Giardia intestinalis [1] is over 5 µg/mL.
In the data set with Giardia intestinalis [1], `O=c1c(-c2ccc3c(c2)OCO3)coc2cc(O)ccc12` [PSEUDOBAPTOGENIN] came in with an IC50 of 0.56 µg/mL (≈ 1.98 µM).
For `COc1cc2c(cc1-c1coc3cc(O)ccc3c1=O)OCO2` [CUNEATIN], the IC50 in the data set with Giardia intestinalis [1] was over 10 µg/mL. Moreover, in the data set with Giardia intestinalis [14], the result was inactive.
As for `COc1cc2c(=O)c(-c3ccc(O)cc3)coc2cc1O`, the result in the data set with Giardia intestinalis [14] was inactive.
